Laboratory results from patent US4548938A, “5-H-1,3,4-thiadiazolo[3,2-a]pyrimidin-5-one compounds” (Janssen Pharmaceutica N.V., priority 1985, dated 1985).
Structures can show the parent of a compound that is named as a salt. Where two headings read alike, the source gives them in different places.

Columns and labels:
[1] = test system: compound 48/80-induced gastric lesions; test: gastric lesion test: lesions induced by compound 48/80; format: in vivo; details: Rattus norvegicus, read-out: gastric lesion test ED50
[2] = test system: compound 48/80-induced lethality; test: protection of rats from compound 48/80-induced lethality; format: in vivo, male Wistar rats; details: Rattus norvegicus, sc, 4 h, s.c., compound 48/80 0.5 mg/kg i.v. 1 hour after treatment, 50% protected against lethality, read-out: 48/80-test ED50
Excerpt: PROTECTION OF RATS FROM COMPOUND 48/80-INDUCED LETHALITY
Compound 48/80, a mixture of oligomers obtained by condensation of 4-methoxy-N-methyl-phenethylamine and formaldehyde has been described as a potent histamine releasing agent (Int. Arch. Allergy, 13, 336 (1958)). The protection from compound 48/80-induced lethal circulatory collapse appears to be a simple way of evaluating quantitatively the antihistaminic activity of test-compounds. Male rats of an inbred Wistar strain, weighing 240-260 g were used in the experiment. After overnight starvation the rats were transferred to conditioned laboratories (temp.=21±1° C., relative humidity=65±5%). The rats were treated subcutaneously or orally with a test compound or with the solvent (NaCl solution, 0.9%). One hour after treatment there was injected intravenously compound 48/80, freshly dissolved in water, at a dose of 0.5 mg/kg (0.2 ml/100 g of body weight). In control experiments, wherein 250 solvent-treated animals were injected with the standard dose of compound 48/80 not more than 2.8% of the animals survived after 4 hours, is therefore considered to be a safe criterion of a protective effect of drug administration.
In this connection the ED50 -values are the minimal doses of the concerned compounds, administered in the subcutaneous way, whereby 50% of the rats are protected against compound 48/80-induced lethality.

[3] = test system: tryptamine-induced bilateral tonic seizures; test: tryptamine (TRY) test in rats, part of the combined APO-TRY-NOR test; format: in vivo, male Wistar rats; details: Rattus norvegicus, sc, 1.5 h, tryptamine 40 mg/kg i.v. at 90 min
[4] = test system: serotonin-induced contraction of rat caudal artery; test: antagonistic activity on the effect of serotonin on the caudal artery of the rat; details: serotonin 40 ng/ml; minimal concentration reducing contraction amplitude to at least 50% of normal; 5 min
Method: ANTAGONISTIC ACTIVITY ON THE EFFECT OF SEROTONIN ON THE CAUDAL ARTERY OF THE RAT
Caudal arteries from fasted male rats (210-235 g) were used in the test. Two helical strips having a length of 5-6 cm and a width of 2 mm. were obtained from each artery and mounted vertically in a 100 ml organ bath containing an oxygenated Krebs-Henseleit solution. Submaximal contractions of the arterial strips were produced by adding single doses of serotonin (40 ng/ml) to the organ bath for 2 minutes with each time an interval of 10 minutes. The amplitude of the contraction was measured before and 5 minutes after adding the drug. After washing out, the agonist was added again three times in order to see whether the contraction was restored and normalized.

[5] = test system: apomorphine-induced phenomena: agitation and stereotypic chewing; test: apomorphine (APO) test in rats, part of the combined APO-TRY-NOR test; format: in vivo, male Wistar rats; details: Rattus norvegicus, sc, 0.5 h, read-out: ED50 (APO)-rat
[6] = test system: norepinephrine-induced mortality; test: norepinephrine (NOR) test in rats, part of the combined APO-TRY-NOR test; format: in vivo, male Wistar rats; details: Rattus norvegicus, sc, 2 h, norepinephrine 1.25 mg/kg i.v. at 120 min
Method: THE COMBINED APOMORPHINE (APO)-, TRYPTAMINE (TRY)- AND NOREPINEPHRINE (NOR) TEST IN RATS
The experimental animals used in this test were adult male Wistar rats (weight 240±10 g). After an overnight fast, the animals were treated subcutaneously (1 ml/100 g) with an aqueous solution of the compound under investigation (time=zero) and put in isolated observation cages. […] At the end of this 1 hour period (time=90 minutes) the same animals were injected intravenously with 40 mg/kg of tryptamine (TRY) and the presence of the typical tryptamine-induced bilateral tonic seizures was noted. Two hours after pretreatment (time=120 minutes) finally, the same animals were challenged with 1.25 mg/kg intravenously of norepinephrine (NOR) and possible mortality was looked for up to 60 minutes later.
The table 1 gives the ED50 -values of a number of the compounds under consideration. As used herein, the ED50 -value represents the dose which protects 50% of the animals from apomorphine-, tryptamine- or norepinephrine-induced phenomena.

[7] = test system: apomorphine-induced emesis; test: apomorphine test in dogs (APO-dog); format: in vivo; details: Canis lupus familiaris, sc; beagle dogs; apomorphine 0.31 mg/kg s.c. 1 hour after compound; protection from emesis
[8] = rats, compound 48/80, distension of the stomach completely absent in 50% of rats
[9] = s.c., rats, apomorphine 1.25 mg/kg i.v. 30 min after compound

| Structure (SMILES) | ED50 [1, 8] [mg/kg] | ED50 [2] [mg/kg] | ED50 [3] [mg/kg] | caudal artery rat ED50 [4] [ng/mL] | ED50 [5, 9] [mg/kg] | ED50 [6] [mg/kg] | ED50 [7] [mg/kg] | ED50 [5] [mg/kg] | ED50 [1] [mg/kg] |
| --- | --- | --- | --- | --- | --- | --- | --- | --- | --- |
| Cc1nc2n(c(=O)c1CCN1CC[C@H](c3c[nH]c4ccccc34)[C@H](C)C1)CCS2 (relative stereo) [compound 23, cis-2,3-dihydro-6-[2-[4-(1H-indol-3-yl)-3-methyl-1-piperidinyl]ethyl]-7-methyl-5H-thiazolo[3,2-a]pyrimidin-5-one] | 2.5 | 2.5 |  |  |  |  |  |  |  |
| Cc1nc2n(c(=O)c1CCN1CCC(C(=O)c3ccc(F)cc3)CC1)CCS2 [compound 1, 6-[2-[4-(4-fluorobenzoyl)-1-piperidinyl]ethyl]-2,3-dihydro-7-methyl-5H-thiazolo[3,2-a]pyrimidin-5-one] | 0.0005 | 0.63 | 0.16 | 0.32 | 0.31 | 0.63 | 0.03 |  |  |
| Cc1nc2n(c(=O)c1CCN1CCC(C(=O)c3ccc(F)cc3)CC1)CCCS2 [compound 2, 7-[2-[4-(4-fluorobenzoyl)-1-piperidinyl]ethyl]3,4-dihydro-8-methyl-2H,6H-pyrimido[2,1-b][1,3]thiazin-6-one] | 0.01 | 0.16 | 0.63 | 0.32 |  | 1.25 | 0.03 | 0.31 |  |
| Cc1nc2n(c(=O)c1CCN1CCC(c3c[nH]c4ccccc34)CC1)CCCS2 [compound 3, 3,4-dihydro-7-[2-[4-(1H-indol-3-yl)-1-piperidinyl]ethyl]-8-methyl-2H,6H-pyrimido[2,1-b][1,3]thiazin-6-one] | 0.02 | 0.04 | 0.63 | 0.32 |  | 1.25 | 0.015 | 0.63 |  |
| Cc1nc2scc(C)n2c(=O)c1CCN1CCC(C(=O)c2ccc(F)cc2)CC1 [compound 4, 6-[2-[4-(4-fluorobenzoyl)-1-piperidinyl]ethyl]-3,7-dimethyl-5H-thiazolo[3,2-a]pyrimidin-5-one] | 0.01 | 0.31 | 0.005 | 0.32 |  | 1.25 |  | 0.16 |  |
| Cc1nc2sccn2c(=O)c1CCN1CCC(C(=O)c2ccc(F)cc2)CC1 [compound 5, 6-[2-[4-(4-fluorobenzoyl)-1-piperidinyl]ethyl]-7-methyl-5H-thiazolo[3,2-a]pyrimidin-5-one] | 0.005 | 0.31 | 0.01 | 0.14 | 0.02 | 0.63 | 0.015 |  |  |
| Cc1nc2sc3ccccc3n2c(=O)c1CCN1CCC(C(=O)c2ccc(F)cc2)CC1 [compound 6, 3-[2-[4-(4-fluorobenzoyl)-1-piperidinyl]ethyl]-2-methyl-4H-pyrimido[2,1-b]benzothiazol-4-one] |  | 0.16 | 0.02 | 0.14 | 5 | 0.31 | 1.8 |  | 0.08 |
| Cc1nn2c(=O)c(CCN3CCC(C(=O)c4ccc(F)cc4)CC3)c(C)nc2s1 [compound 7] | 0.0025 | 0.16 | 0.31 | 1.25 |  | 0.63 | 0.5 | 2.5 |  |
| Cc1nc2sc3c(n2c(=O)c1CCN1CCC(C(=O)c2ccc(F)cc2)CC1)CCC3 [compound 8, 3-[2-[4-(4-fluorobenzoyl)-1-piperidinyl]ethyl]7,8-dihydro-2-methyl-4H,6H-cyclopenta[4,5]thiazolo[3,2-a]pyrimidin-4-one] |  | 0.31 | 0.31 | 0.32 |  | 0.63 | 0.25 | 1.25 | 0.04 |
| Cc1nc2sccn2c(=O)c1CCN1CCC(C)(C(=O)c2ccc(F)cc2)CC1 [compound 9, monohydrochloride] | 0.005 | 0.16 | 0.16 | 0.32 |  | 1.25 | 0.25 | 0.63 |  |
| Cc1nc2sccn2c(=O)c1CCN1CCC(C(=O)c2ccc(F)cc2)(c2ccccc2)CC1 [compound 10, 6-[2-[4-(4-fuorobenzoyl)-4-phenyl-1-piperidinyl]ethyl]-7-methyl-5H-thiazolo-[3,2-a]pyrimidin-5-one] | 2.5 |  |  |  |  |  |  |  |  |
| Cc1nc2scc(C)n2c(=O)c1CCN1CCC(c2c[nH]c3ccccc23)CC1 [compound 11, 6-[2-[4-(1H-indol-3-yl)-1-piperidinyl]ethyl]-3,7-dimethyl-5H-thiazolo[3,2-a]pyrimidin-5-one] | 0.0025 | 0.08 | 0.04 | 0.14 | 0.08 | 0.16 | 0.004 |  |  |
| Cc1nc2sc3ccccc3n2c(=O)c1CCN1CCC(c2c[nH]c3ccccc23)CC1 [compound 13, 3-[2-[4-(1H-indol-3-yl)-1-piperidinyl]ethyl]-2-methyl-4H-pyrimido[2,1-b]benzothiazol-4-one] | 0.04 | 0.63 | 0.31 | 0.32 |  | 0.16 |  | 1.25 |  |
| Cc1nn2c(=O)c(CCN3CCC(c4c[nH]c5ccccc45)CC3)c(C)nc2s1 [compound 14, 6-[2-[4-(1H-indol-3-yl)-1-piperidinyl]ethyl]-2,7-dimethyl-5H-1,3,4-thiadiazolo[3,2-a]pyrimidin-5-one] | 0.04 | 0.04 | 1.25 | 0.56 | 5 | 0.63 |  |  |  |
| Cc1nc2n(c(=O)c1CCN1CCC(c3c[nH]c4ccccc34)CC1)CCS2 [compound 15, 2,3-dihydro-6-[2-[4-(1H-indol-3-yl)-1-piperidinyl]-ethyl]-7-methyl-5H-thiazolo[3,2-a]pyrimidin-5-one] | 0.04 | 0.02 |  | 0.31 |  | 1.25 | 0.008 | 1.25 |  |
| Cc1nc2scc(C)n2c(=O)c1CCN1CCC(c2c[nH]c3ccc(F)cc23)CC1 [compound 20, 6-[2-[4-(5-fluoro-1H-indol-3-yl)-1-piperidinyl]ethyl]-3,7-dimethyl-5H-thiazolo[3,2-a]pyrimidin-5-one] | 0.31 | 0.63 | 0.63 | 0.31 |  |  | 0.12 | 1.25 |  |
| Cc1nc2sccn2c(=O)c1CCN1CCC(c2c[nH]c3ccc(Cl)cc23)CC1 [compound 21, 6-[2-[4-(5-chloro-1H-indol-3-yl)-1-piperidinyl]ethyl]-7-methyl-5H-thiazolo[3,2-a]pyrimidin-5-one] |  | 2.5 |  |  |  | 1.25 |  | 0.63 | 1.25 |
| Cc1nc2sc(C)c(C)n2c(=O)c1CCN1CCC(C(=O)c2ccc(F)cc2)CC1 [compound 24, 6-[2-[4-(4-fluorobenzoyl)-1-piperidinyl]ethyl]-2,3,7-trimethyl-5H-thiazolo[3,2-a]pyrimidin-5-one] | 0.01 | 0.08 | 0.04 |  | 0.63 | 0.63 | 0.12 |  |  |
